Drawing on a melting point compilation (Tetko et al.; mined from patent text by program, amines drawn as free bases though some values may be those of a salt), this text covers melting point for 84 molecules.

Residues, ends and D or L forms follow the SMILES beside them. *: point of attachment. Cbz = O=C(OCc1ccccc1)*

On to `COc1ccc(C2=NN(c3ccc(C4=NNC(=O)CC4C)cc3)C(=O)C3CC=CCC23)cc1OC` (centres undefined), for which the melting point is 192 to 194 °C.

As to `Cc1cc(CNC(=O)c2cc(-c3ccc(-c4ccccc4C)cc3)nn2C)ccc1OC(C)(C)C(=O)O`, the melting point lay in the range of 90 to 100 °C. Next, `CCOC(=O)c1ccc2c(c1)CC(CO)O2` (centres undefined): 72 to 77 °C; `COCCNc1c([N+](=O)[O-])cc(C)cc1[N+](=O)[O-]`: 75 °C; `Cc1ccc2cccc(OCc3c(Cl)ccc(S(=O)(=O)N(C)C(C)(C)C)c3Cl)c2n1`: 160 to 162 °C.

With `O=C(Nc1cccc(F)c1F)c1ccc(-n2nc(C(F)(F)F)cc2C2CC2)c(F)c1`, the melting point lay within 175 to 180 °C. Consider `Cc1cn(C2CCCCC2)c(=O)[nH]c1=S`, for which the melting point fell in the range of 177 to 178 °C. To `CN1C(=S)C(c2ccc(OC(F)(F)F)cc2)(c2cccc(-c3cccnc3F)c2)N=C1N` (centres undefined) belongs 89 to 99 °C; to `CCN(CC)C(=O)Cc1ccccc1OC`, 141 °C.

`O=C(O)[C@@H]1Cc2cc(Cl)cc(Cl)c2O[C@@H]1C(F)(F)F`: the melting point lay in the range of 100 to 101 °C. `O=C1CCCC12CNc1ccc(Cl)cc12` (centres undefined): the melting point lay in the range of 201 to 202 °C. Next, `CC(C)c1ccc(-c2cnc(-c3cccc(C(=O)O)c3)[nH]2)cc1`: 296 to 298 °C; `CC=CCn1c(C)c(CCCCC)c2cnnc(OCc3ccc(F)cc3)c21`: 65 to 69 °C; `CNC(=O)c1cc(NC(=O)c2ccc(C)c(Nc3nccc(-c4cccnc4)n3)c2)cc(N2CCOCC2)c1`: 153 to 156 °C. To `CC(C)Sc1nc(-n2ccnc2)c(I)c(C(F)(F)F)n1` belongs 118 to 120 °C.

`CC(C)(C(N)=O)c1ccc(OCc2ccccc2)cc1` registered a melting point of 150 to 151 °C. To `NS(=O)(=O)c1ccc(-c2noc(-c3cnn4ccc(-c5ccc(C(F)(F)F)cc5)nc34)n2)s1` belongs 251 °C; to `NC1CC(=O)N(Cc2ccccc2)C1=O` (centres undefined), 74 to 77 °C; to `COC(=O)CNc1ccc(OC(=O)CC2CCN(c3ccncc3)CC2)cc1`, 120 to 122 °C. Next, `C[C@H]1CC[C@H]2C(C)(C)[C@@H](O)CC[C@]23Oc2c(c(OCc4ccccc4)cc4c2CN(C(=O)OC(C)(C)C)C4=O)C[C@]13C`: 138 to 140 °C; `Cn1cc(C2=C(c3cn(C)c4cc(CO)ccc34)C(=O)NC2=O)c2ccccc21`: 245 to 246 °C. To `CCOC(=O)CCNC(=O)Nc1cc(-c2ccc3cc(NS(C)(=O)=O)ccc3c2)c(OC)c(C(C)(C)C)c1` belongs above 300 °C; to `Cc1cc(-n2ccnc2)c2cccc(OCc3c(Cl)ccc(S(=O)(=O)N4CCC[C@H]4C(=O)NCc4ccccn4)c3Cl)c2n1`, 102 °C; to `CC1OC(N2CC(C)(I)C(=O)NC2=O)CC1O[Si](c1ccccc1)(c1ccccc1)C(C)(C)C` (centres undefined), 142 °C. For the molecule `CN(CC1CCc2c(cccc2OCC(=O)O)C1)c1cnc(-c2ccccc2)c(-c2ccccc2)n1` (centres undefined), the melting point lay within 212 to 213 °C. Next, `Cc1c(SCCCn2ccnc2)ccnc1CSc1ccncc1`: 117 to 119 °C; `CC1(C)OC(=C(C#N)C#N)C(C#N)=C1C=Cc1c(F)c(F)c(N2C3C4CCC(C4)C32)c(F)c1F` (centres undefined): 233 °C. To `N#Cc1cccc(CN2CCC(c3ccc(NC(=O)c4ccccc4-c4ccc(C(F)(F)F)cc4)cc3)CC2)c1` belongs 124 to 126 °C; to `COC(=O)C1=C(C(OC)OC)NC(C)=C(c2nc(CCl)no2)C1c1cccc([N+](=O)[O-])c1` (centres undefined), 141 to 142 °C. Turning to `Cc1cc(OCc2oc(-c3ccc(C(F)(F)F)cc3)nc2C)ccc1CCC(=O)O`, the melting point fell in the range of 113 to 115 °C. To `c1csc(Cn2ccnc2-c2ncc[nH]2)c1` belongs 153 to 155 °C; to `CNC(=O)c1cccc(Nc2nc(Nc3ccc4c(c3)CCCC(=O)N4C)ncc2Cl)c1`, 215 to 217 °C. Next, `CCOP(=O)(OCC)c1cccc2c(P(=O)(OCC)OCC)cccc12`: 169 to 171 °C. Molecule `C[C@H](NC(=O)[C@H](C)NC(=O)OCc1ccccc1)C(=O)O` (Cbz-Ala-Ala-OH) showed a melting point of 203 to 205 °C. To `Cc1cc(-c2ccc(C#N)cc2)nc(-c2cccc(-c3cccc(S(N)(=O)=O)c3)n2)n1` belongs 255 °C. For the molecule `COC(=O)c1ccc(CC(C)NCC(O)c2ccccc2)cc1` (centres undefined), the melting point lay within 82 to 84 °C. To `Fc1ccc(C2=CCC3(CC2)OCCO3)cc1` belongs 84 to 85 °C; to `CCC(NC(=O)COc1c(C)cccc1C)C(N)=O` (centres undefined), 182 to 184 °C. In turn, `CCN(CC(=O)O)c1ccc(OCC(C)(C)C)c(C#N)c1` displayed a melting point of 78 °C. In turn, `CC(C)C(NC(=O)OCc1ccccn1)C(=O)NC(Cc1ccccc1)C(O)C(Cc1ccccc1)NC(=O)C(NC(=O)OCc1ccccn1)C(C)C` (centres undefined) yielded a melting point of 155 to 156 °C. Next, `COc1ccc2c(CCBr)c[nH]c2c1`: 98 to 101 °C; `C#CCc1cc(C(O)=S)cc(N)c1Oc1ccccc1`: 167 to 168 °C.

With `CCOC(=O)c1ccc(C=C(C)C=O)o1`, the melting point is 83 °C.

Molecule `N#CC(=NNc1ccc(C(F)(F)F)cc1)C(=O)NCc1ccc(Cl)nc1` yielded a melting point of 204 to 205 °C. To `CCN(CC)CCOc1ccc(C(O)(CC)c2ccc(Cl)cc2)cc1` (centres undefined) belongs 50 to 51 °C; to `CCCc1cccc(C(C)(C)C)c1O`, 89 to 90 °C.

In the case of `COc1cc(C(O)c2ccc(C)cc2)cc(C2OCCCO2)c1OC` (centres undefined), the melting point was in the range of 83 to 84 °C. Next, `COc1ncc([N+](=O)[O-])c(OC)n1`: 92 to 93 °C.

Take `O=C1c2c(O)ccc(O)c2C(=O)c2c(NCCN3CCCCC3CO)ccc(NCCN3CCCCC3CO)c21` (centres undefined): the melting point was 208 to 210 °C.

Regarding `CC(C)c1ccc2c(c1)[C@H]1Cc3ccccc3[C@H]1N2` (relative stereo), the melting point was found to be 104 °C. To `CON(C(=O)c1cn(C)nc1C(F)F)C(C)C1CC1c1ccc(Cl)cc1Cl` (centres undefined) belongs 133 to 135 °C; to `CCc1c(C(=O)C(N)=O)c2c(OCC(=O)NOC(C)(C)C)cccc2n1Cc1ccccc1`, 203 to 205 °C. Molecule `COC(=O)COc1cc2c(c3c1c(C(=O)C(N)=O)c(C)n3Cc1ccccc1)CCCC2` had a melting point of 115 to 125 °C.

For `OCc1c[nH]c(=S)n1[C@H]1CCc2cc(Cl)c(Cl)cc2C1`, the melting point is 247 to 248 °C. Next, `C=CCNC(=O)N1CCc2cc(S(=O)(=O)N3CC(c4ccccc4)NC3=O)ccc21` (centres undefined): 217 to 219 °C. To `CC=C(NC(=O)CCC1CCCC1)C(=O)O` belongs 180 to 182 °C.

The molecule `COc1cc(N)c(Cl)cc1C(=O)N[C@H]1CCN(CCCN2C(=O)c3ccccc3C2=O)C[C@H]1OC` (relative stereo) showed a melting point of 208 °C. Molecule `CN(Cc1cc(C(F)(F)F)cc(C(F)(F)F)c1)C(=O)c1nc(NCc2ccccc2)ncc1-c1ccccc1` yielded a melting point of 128 to 130 °C. Next, `CS(=O)(=O)Nc1ccc(OCCCN2CCC(OC(c3ccccc3)c3ccccc3)CC2)cc1`: 41 to 43 °C; `CCOC(=O)N1CCN(C2=C(Cl)C(=O)c3nsnc3C2=O)CC1`: 152 to 154 °C; `Nc1c(Br)cc(Oc2cc(Br)c(N)c(Br)c2)cc1Br`: 166 to 167 °C. To `O=C(O)c1cc2cc3c(cc2oc1=O)OCO3` belongs 279 to 280 °C; to `N#CCc1cccc(C(=O)c2ccccc2)c1N`, 138 to 139 °C. To `ClC1=NC(Cl)(C(Cl)(Cl)C(Cl)(Cl)Cl)N=C1Cl` belongs 74 to 75 °C.

On to `COc1ccc(C(=O)Nc2ccc(-c3ccc(C(C)=O)cc3C)cc2)cc1CCCN(C)C`, for which the melting point was 110 to 112 °C. In the case of `C=CCN1C(=O)N(Cc2c(C)c(CN3C(=O)N(CC=C)C(=O)C3(C)C)c(C)c(CN3C(=O)N(CC=C)C(=O)C3(C)C)c2C)C(C)(C)C1=O`, the melting point lay in the range of 150 to 155 °C. To `CCOC(=O)c1cnc2ccc(OCC)nc2c1Cl` belongs 61 to 64 °C; to `O=C1c2ccccc2-c2cc(O)cc3ccc(O)c1c23`, 280 °C; to `CC(=O)C1CCC2C3CCC4C=CCCC4(C)C3CCC12C` (centres undefined), 135 to 136 °C.

Regarding `COC(=O)c1cccc(CNC(=O)C2CC2)c1C(=O)OC`, the melting point was in the range of 240 to 242 °C. Regarding `COc1cccc(C23CCCC(C2)N(C)C3=O)c1` (centres undefined), the melting point was in the range of 68 to 70 °C. Next, `O=C1NCN(c2ccc(F)cc2)C12CCN(CCCn1c(=O)[nH]c3ccccc31)CC2`: 215 °C. Next, `COc1cccc(COc2ccc3oc(-c4nc(C(C)(C)C)cs4)cc3c2)c1OC(C)C(N)=O` (centres undefined): 155 to 156 °C; `C=CC12CCc3cc(O)ccc3C1CCC1(C)C(=O)CCC12` (centres undefined): 239 to 242 °C.

In turn, `COc1ccc(C(=O)CC(=O)C(F)(F)C(F)(F)F)cc1OC` had a melting point of 72 °C. With `COc1cc2c(cc1OC)C(=CN1CCN(C(=O)C3CCCCO3)CC1)C(=O)N2` (centres undefined), the melting point was in the range of 208 to 210 °C.

For the molecule `COC(=O)c1ccc2cc(OC)c(OC)cc2c1O`, the melting point fell in the range of 144 to 145 °C. For the molecule `CCCCN(c1nc(NCC(=O)OCC)nc(N(CCCC)C2CC(C)(C)NC(C)(C)C2)n1)C1CC(C)(C)NC(C)(C)C1`, the melting point stood at 40 °C. For `Cc1ccc(S(=O)(=O)NC(=O)OCCc2ccc(-n3c(CCC(=O)c4cccnc4)nc4cc(C(F)(F)F)c(Cl)cc43)cc2)cc1`, the melting point was 89 to 95 °C.

Take `CCOC(=O)CCc1cn(-c2ccc(N)cn2)nc1C(C)C`: the melting point lay within 75 to 76 °C. For `COc1cc(C(CCN(C)C)C(N)=O)cc(OC)c1OC` (centres undefined), the melting point lay in the range of 110 to 112 °C. To `COc1cc(N2[C@H](C)C[C@](C)(O)[C@@H]2C)ccc1C#N` belongs 121 to 123 °C.

For the molecule `CCOc1nn(-c2c(Cl)cc(C(F)(F)F)cc2Cl)c(N)c1C(=O)c1cccc(C(F)(F)F)c1`, the melting point lay within 77 to 78 °C.

For the molecule `N=C(N)c1ccc(C(=O)Nc2cc(C(=O)NCCC(=O)O)ccc2OCc2ccccc2)cc1`, the melting point is above 250 °C.

As usually defined, the melting point is the temperature of the solid-liquid transition.
